Reference: ChEMBL document CHEMBL1201862, “PubChem BioAssay data set” (2004)
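Method: 48-hour compound exposure of cells in 96-well plates, five concentrations, linear interpolation of endpoints. Abbreviation: GI50, concentration required for 50% inhibition of growth.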 Active and inactive are the calls of the source. No stated cut-off is given here; in the data, active = GI50 up to about 1.1 µM and inactive = higher.

How the values were obtained:
Test in all cases: growth of human tumour cells (NCI), 48 h
LXFL 529 = system: LXFL 529
SNB-78 = system: SNB-78
DLD-1 = system: DLD-1
DMS-273 = system: DMS-273
M19-MEL = system: M19-MEL
KM-20L2 = system: KM-20L2
DMS-114 = system: DMS-114
HOP-18 = system: HOP-18

Row | SMILES | GI50 (LXFL 529) | GI50 (SNB-78) | GI50 (DLD-1) | GI50 (DMS-273) | GI50 (M19-MEL) | GI50 (KM-20L2) | GI50 (DMS-114) | GI50 (HOP-18)
1 | [O-][S+]1c2ccccc2N=C(c2ccc3ccccc3c2)CC1c1ccccc1 (stereo not drawn) | 16.1 µM (inactive) | 47.3 µM (inactive) | 19 µM (inactive) | 38.6 µM (inactive) | 17.9 µM (inactive) | 18.7 µM (inactive) |  | 
2 | Cc1ccc2nc3c(C(=O)NCCN(C)C)cccc3cc2c1 |  | 4.24 µM (inactive) | 2.01 µM (inactive) | 1.5 µM (inactive) | 1.95 µM (inactive) | 0.75 µM (active) | 1.53 µM (inactive) | 1.46 µM (inactive)
3 | O=C1CCC(=O)C12CCc1cccc(O)c12 | > 100 µM (inactive) | > 100 µM (inactive) | > 100 µM (inactive) | > 100 µM (inactive) | > 100 µM (inactive) | > 100 µM (inactive) | > 100 µM (inactive) | > 100 µM (inactive)
4 | COC(=O)C(=O)C(C#N)c1cccc(Cl)c1 (stereo not drawn) | > 100 µM (inactive) | > 100 µM (inactive) | > 100 µM (inactive) | > 100 µM (inactive) | > 100 µM (inactive) | > 100 µM (inactive) |  | > 100 µM (inactive)
5 | CCOc1ccc(O)cc1[P+](c1ccccc1)(c1ccccc1)c1ccccc1 | 1.37 µM (inactive) | 4.15 µM (inactive) | 4.14 µM (inactive) | 2.16 µM (inactive) | 3.05 µM (inactive) | 2.46 µM (inactive) |  | 2.91 µM (inactive)
6 | CC1=C(N(C)C)C(=O)c2nc3n(c2C1=O)CCC3OC(N)=O (stereo not drawn) |  | 23 µM (inactive) | 16.2 µM (inactive) | 15.8 µM (inactive) | 1.7 µM (inactive) | 20.2 µM (inactive) | 16.1 µM (inactive) | 17.7 µM (inactive)
7 | CC1OC1C(=O)C1(O)C(C)C(O)C23OC2(C(O)c2c(O)cccc2C3=O)C1O (stereo not drawn) [CERVICARCIN] |  | 0.267 µM (active) | 0.167 µM (active) | 0.184 µM (active) | 0.0933 µM (active) | 0.214 µM (active) | 0.048 µM (active) | 0.0605 µM (active)
8 | COc1ccc2c3c1O[C@H]1C[C@@H](O)C=C[C@@]31CCN(C)C2 [GALANTAMINE] |  | 103 µM (inactive) | 50 µM (inactive) | > 150 µM (inactive) | > 150 µM (inactive) | > 150 µM (inactive) | > 150 µM (inactive) | > 150 µM (inactive)
9 | O=c1cc[nH]c(=O)[nH]1 [URACIL] |  | 475 µM (inactive) | 532 µM (inactive) | 403 µM (inactive) | 279 µM (inactive) | 426 µM (inactive) | 553 µM (inactive) | > 1000 µM (inactive)
